{"source": "patent US10378041B2", "about": "“Effervescent compositions and uses thereof” (3M INNOVATIVE PROPERTIES COMPANY, priority 2010, dated 2019)", "system": "Pseudomonas putida (ATCC 31483)", "assay": "Bacterial growth in growth medium containing ceftazidime hydrate (96-well plate, turbidity)", "format": "cell-based", "parameters": "key to bacterial growth (turbidity): “+” indicates growth; “−” indicates no growth", "conditions": "overnight at 37° C.", "protocol": "Samples of growth media were prepared by dissolving a tablet of each composition in 1 liter of recovery media (modified Listeria Recovery Broth (MLRB), available from 3M Company; St. Paul, Minn.). The tablets dissolved within 4.5 minutes. A sample of growth media was prepared as a control by dissolving 10 mg of Ceftazidime hydrate powder (product number C3809-5G available from Sigma Aldrich; St. Louis, Mo.) in 1 liter of MLRB.\nA bacterial suspension was prepared by inoculating a pure culture of Pseudomonas putida (ATCC 31483 obtained from ATCC, Manassas, Va.) into tryptic soy broth (BD™ Tryptic Soy Broth; Becton Dickinson; Sparks, Md.) and incubating at 37° C. The suspension was diluted 1:1,000 in SMB (Standard Methods Buffer; 3M Company; St. Paul, Minn.). The diluted suspension was further diluted 1:10,000-diluted in SMB growth medium containing ceftazidime concentrations shown in Table 10. Four duplicates of each sample were pipetted into a 96-well plate as follows: Growth Control with no Ceftazidime hydrate; an Undiluted Control with 10 micrograms Ceftazidime hydrate/microliter of the bacterial suspension; and each dilution of inoculated medium containing the concentration of ceftazidime hydrate shown in the Table 10. The 96-well plate was incubated overnight at 37° C. and examined visually for bacterial growth. Turbidity in the well indicated growth.", "data": [{"smiles": "CC(C)(O/N=C(\\C(=O)N[C@@H]1C(=O)N2C(C(=O)[O-])=C(C[n+]3ccccc3)CS[C@H]12)c1csc(N)n1)C(=O)O", "note": "[Powder Control, Ceftazidime hydrate]", "values": [{"measurement": "bacterial growth (turbidity)", "setting": "2.5 mcg CDH/microliter", "result": "+"}, {"measurement": "bacterial growth (turbidity)", "setting": "3.75 mcg CDH/microliter", "result": "+"}, {"measurement": "bacterial growth (turbidity)", "setting": "5.0 mcg CDH/microliter", "result": "−"}, {"measurement": "bacterial growth (turbidity)", "setting": "6.25 mcg CDH/microliter", "result": "−"}, {"measurement": "bacterial growth (turbidity)", "setting": "7.5 mcg CDH/microliter", "result": "−"}, {"measurement": "bacterial growth (turbidity)", "setting": "8.75 mcg CDH/microliter", "result": "−"}, {"measurement": "bacterial growth (turbidity)", "setting": "Undiluted Control - 10 mcg CDH/microliter", "result": "−"}, {"measurement": "lowest concentration of ceftazidime hydrate showing no growth", "setting": "delivered in tablet or powder", "result": "5 mcg/microliter of sample"}]}]}
